PubChem BioAssay AID1259407 (Chemical Carcinogenesis Research Information System (CCRIS), 2018)
The source made the active and inactive calls. How the calls were made is not given here.

Test system: CCRIS mutagenicity, Ames/micronucleus/aberration tests
Test: CCRIS mutagenicity studies

Cn1c(N)nc2c3cccnc3ccc21
mutagenic call (End Point: IN VIVO MICRONUCLEUS, Test System: BONE MARROW POLYCHROMATIC ERYTHROCYTES, Species: MOUSE, Strain/Sex: BALB/C/MALE, Route: IP INJECTION): inactive; negative | mutagenic call (Test System: AMES SALMONELLA TYPHIMURIUM, Strain/Indicator: RAT, LIVER, MICROSOMES, Metabolic Activation: TA98, Method: PREINCUBATION): active; positive | mutagenic call (Test System: AMES SALMONELLA TYPHIMURIUM, Strain/Indicator: RAT, LIVER, S-9, Metabolic Activation: TA98, Method: PREINCUBATION): active; positive | mutagenic call (Test System: AMES SALMONELLA TYPHIMURIUM, Strain/Indicator: TA98 (1,8-DNP6), Metabolic Activation: RAT, LIVER, S-9, AROCLOR, Method: PREINCUBATION): inactive; negative | mutagenic call (Test System: AMES SALMONELLA TYPHIMURIUM, Strain/Indicator: TA98(1,8-DNP6), Metabolic Activation: RAT, LIVER, S-9, Method: STANDARD PLATE): inactive; negative | mutagenic call (Test System: AMES SALMONELLA TYPHIMURIUM, Strain/Indicator: TA98, Metabolic Activation: CYNOMOLGUS MONKEY, LIVER, MICROSOMES, Method: PREINCUBATION): active; positive | mutagenic call (Test System: AMES SALMONELLA TYPHIMURIUM, Strain/Indicator: TA98, Metabolic Activation: CYNOMOLOGUS MONKEY, LIVER, MICROSOMES, 2,3,7,8-TETRACHLORODIBENZO-P-DIOXIN, Method: PREINCUBATION): active; positive | mutagenic call (Test System: AMES SALMONELLA TYPHIMURIUM, Strain/Indicator: TA98, Metabolic Activation: CYNOMOLOGUS MONKEY, LIVER, MICROSOMES, 2-AMINO-3-METHYLIMIDAZO[4,5-F]QUINOLINE, Method: PREINCUBATION): active; positive | mutagenic call (Test System: AMES SALMONELLA TYPHIMURIUM, Strain/Indicator: TA98, Metabolic Activation: CYNOMOLOGUS MONKEY, LIVER, MICROSOMES, RIFAMPICIN, Method: PREINCUBATION): active; positive | mutagenic call (Test System: AMES SALMONELLA TYPHIMURIUM, Strain/Indicator: TA98, Metabolic Activation: HAMSTER, LIVER, S-9, AROCLOR 1254, Method: PREINCUBATION): active; positive | mutagenic call (Test System: AMES SALMONELLA TYPHIMURIUM, Strain/Indicator: TA98, Metabolic Activation: HAMSTER, LIVER, S-9, Method: PREINCUBATION): active; positive | mutagenic call (Test System: AMES SALMONELLA TYPHIMURIUM, Strain/Indicator: TA98, Metabolic Activation: HUMAN, BLOOD, CYTOSOL, Method: PREINCUBATION): active; positive | mutagenic call (Test System: AMES SALMONELLA TYPHIMURIUM, Strain/Indicator: TA98, Metabolic Activation: HUMAN, LIVER, MICROSOMES, Method: PREINCUBATION): active; positive | mutagenic call (Test System: AMES SALMONELLA TYPHIMURIUM, Strain/Indicator: TA98, Metabolic Activation: MONKEY, LIVER, MICROSOMES, Method: PREINCUBATION): active; positive | mutagenic call (Test System: AMES SALMONELLA TYPHIMURIUM, Strain/Indicator: TA98, Metabolic Activation: MONKEY, LIVER, S-9, Method: PREINCUBATION): active; positive | mutagenic call (Test System: AMES SALMONELLA TYPHIMURIUM, Strain/Indicator: TA98, Metabolic Activation: MOUSE, LIVER, HEPATOCYTES): active; positive | mutagenic call (Test System: AMES SALMONELLA TYPHIMURIUM, Strain/Indicator: TA98, Metabolic Activation: MOUSE, LIVER, HEPATOCYTES, 2,3,7,8-TETRACHLORODIBENZO-P-DIOXIN): active; positive | mutagenic call (Test System: AMES SALMONELLA TYPHIMURIUM, Strain/Indicator: TA98, Metabolic Activation: MOUSE, LIVER, MICROSOMES): active; positive | mutagenic call (Test System: AMES SALMONELLA TYPHIMURIUM, Strain/Indicator: TA98, Metabolic Activation: MOUSE, LIVER, MICROSOMES, 2,3,7,8-TETRACHLORODIBENZO-P-DIOXIN): active; positive | mutagenic call (Test System: AMES SALMONELLA TYPHIMURIUM, Strain/Indicator: TA98, Metabolic Activation: MOUSE, LIVER, MICROSOMES, TCDD, Method: STANDARD PLATE): active; positive | mutagenic call (Test System: AMES SALMONELLA TYPHIMURIUM, Strain/Indicator: TA98, Metabolic Activation: MOUSE, LIVER, MICROSOMES, Method: STANDARD PLATE): active; positive | mutagenic call (Test System: AMES SALMONELLA TYPHIMURIUM, Strain/Indicator: TA98, Metabolic Activation: MOUSE, LIVER, S-9, Method: PREINCUBATION): active; positive | mutagenic call (Test System: AMES SALMONELLA TYPHIMURIUM, Strain/Indicator: TA98, Metabolic Activation: NONE, Method: PREINCUBATION): inactive; negative | mutagenic call (Test System: AMES SALMONELLA TYPHIMURIUM, Strain/Indicator: TA98, Metabolic Activation: NONE, Method: STANDARD PLATE): inactive; negative | mutagenic call (Test System: AMES SALMONELLA TYPHIMURIUM, Strain/Indicator: TA98, Metabolic Activation: PATAS MONKEY, LIVER, MICROSOMES, Method: PREINCUBATION): active; positive | mutagenic call (Test System: AMES SALMONELLA TYPHIMURIUM, Strain/Indicator: TA98, Metabolic Activation: RAT LIVER, CYTOSOL, AROCLOR 1254, Method: STANDARD PLATE): inactive; negative | mutagenic call (Test System: AMES SALMONELLA TYPHIMURIUM, Strain/Indicator: TA98, Metabolic Activation: RAT LIVER, MICROSOMES, AROCLOR 1254, Method: STANDARD PLATE): active; positive | mutagenic call (Test System: AMES SALMONELLA TYPHIMURIUM, Strain/Indicator: TA98, Metabolic Activation: RAT, LIVER, HEPATOCYTES, AROCLOR 1254, Method: PREINCUBATION): active; positive | mutagenic call (Test System: AMES SALMONELLA TYPHIMURIUM, Strain/Indicator: TA98, Metabolic Activation: RAT, LIVER, HEPATOCYTES, Method: PREINCUBATION): active; positive | mutagenic call (Test System: AMES SALMONELLA TYPHIMURIUM, Strain/Indicator: TA98, Metabolic Activation: RAT, LIVER, MICROSOMES, Method: PREINCUBATION): active; positive | mutagenic call (Test System: AMES SALMONELLA TYPHIMURIUM, Strain/Indicator: TA98, Metabolic Activation: RAT, LIVER, S-9, 3-METHYLCHOLANTHRENE, Method: PREINCUBATION): active; positive | mutagenic call (Test System: AMES SALMONELLA TYPHIMURIUM, Strain/Indicator: TA98, Metabolic Activation: RAT, LIVER, S-9, AROCLOR, Method: PREINCUBATION): active; positive | mutagenic call (Test System: AMES SALMONELLA TYPHIMURIUM, Strain/Indicator: TA98, Metabolic Activation: RAT, LIVER, S-9, N-BENZYLIMIDAZOLE, Method: PREINCUBATION): active; positive | mutagenic call (Test System: AMES SALMONELLA TYPHIMURIUM, Strain/Indicator: TA98, Metabolic Activation: RAT, LIVER, S-9, PHENOBARBITONE, Method: PREINCUBATION): active; positive | mutagenic call (Test System: AMES SALMONELLA TYPHIMURIUM, Strain/Indicator: TA98, Metabolic Activation: RAT, LIVER, S-9, Method: STANDARD PLATE): active; positive | mutagenic call (Test System: AMES SALMONELLA TYPHIMURIUM, Strain/Indicator: TA98, Method: STANDARD PLATE): active; positive | mutagenic call (Test System: AMES SALMONELLA TYPHIMURIUM, Strain/Indicator: TA100, Metabolic Activation: NONE, Method: PREINCUBATION): inactive; negative | mutagenic call (Test System: AMES SALMONELLA TYPHIMURIUM, Strain/Indicator: TA100, Metabolic Activation: RAT, LIVER, S-9, AROCLOR 1254, Method: PREINCUBATION): active; positive | mutagenic call (Test System: AMES SALMONELLA TYPHIMURIUM, Strain/Indicator: YG1019, Metabolic Activation: RAT LIVER S-9, AROCLOR, Method: PREINCUBATION): active; positive | mutagenic call (Test System: AMES SALMONELLA TYPHIMURIUM, Strain/Indicator: YG1024, Metabolic Activation: RAT, LIVER, S-9, AROCLOR, Method: PREINCUBATION): active; positive | mutagenic call (Test System: CHINESE HAMSTER V-79, Strain/Indicator: V-79/6-THIOGUANINE, Metabolic Activation: RAT, LIVER, HEPATOCYTES, AROCLOR 1254): active; positive | mutagenic call (Test System: CHINESE HAMSTER V-79, Strain/Indicator: V-79/6-THIOGUANINE, Metabolic Activation: RAT, LIVER, S-9, AROCLOR 1254): inactive; negative | mutagenic call (Test System: E. COLI, Strain/Indicator: CC109, Metabolic Activation: RAT, LIVER, S-9, AROCLOR 1254, Method: STANDARD PLATE): active; positive | mutagenic call (Test System: E. COLI, Strain/Indicator: CC110, Metabolic Activation: RAT, LIVER, S-9, AROCLOR 1254, Method: STANDARD PLATE): active; positive | mutagenic call (Test System: E. COLI, Strain/Indicator: DJ3109, Metabolic Activation: RAT, LIVER, S-9, AROCLOR 1254, Method: STANDARD PLATE): active; positive | mutagenic call (Test System: E. COLI, Strain/Indicator: DJ3110, Metabolic Activation: RAT, LIVER, S-9, AROCLOR 1254, Method: STANDARD PLATE): active; positive | mutagenic call (Test System: E. COLI, Strain/Indicator: DJ3209, Metabolic Activation: RAT, LIVER, S-9, AROCLOR 1254, Method: STANDARD PLATE): active; positive | mutagenic call (Test System: E. COLI, Strain/Indicator: DJ3210, Metabolic Activation: RAT, LIVER, S-9, AROCLOR 1254, Method: STANDARD PLATE): active; positive | mutagenic call (Test System: UDS HAMSTER HEPATOCYTES, Strain/Indicator: THY INCORP, Metabolic Activation: NONE, Method: LIQUID SCINTILLATION COUNTING): active; positive | mutagenic call (Test System: UDS HUMAN HEPATOCYTES, Strain/Indicator: THY INCORP, Metabolic Activation: NONE, Method: AUTORADIOGRAPHY): active; positive | mutagenic call (Test System: UDS MOUSE HEPATOCYTES, Strain/Indicator: THY INCORP, Metabolic Activation: NONE, Method: AUTORADIOGRAPHY): active; positive | mutagenic call (Test System: UDS RAT HEPATOCYTES, Strain/Indicator: THY INCORP, Metabolic Activation: NONE, Method: AUTORADIOGRAPHY): inactive; negative | mutagenic call (Test System: UDS RAT HEPATOCYTES, Strain/Indicator: THY INCORP, Metabolic Activation: NONE, Method: LIQUID SCINTILLATION COUNTING): inactive; negative
